According to US9956236B2, “Methods for increasing immune responses using agents that directly bind to and activate IRE-1” (Cornell University, priority 2011, dated 2018):

Legend:
[1] = tested on: CD86 and CD40; test: Co-stimulatory ligand (CD86 and CD40) expression with Nelfinavir and synthetic TLR4 agonist MPLA; assay type: cell-based; conditions: Nelfinavir plus TLR4 agonist MPLA compared to TLR4 agonist alone
[2] = molecular target: recombinant IRE1 protein (Homo sapiens, UniProt O75460); test: In vitro fluorescent splicing reporter assay with recombinant IRE1 protein; assay type: biochemical; conditions: doses of PIs ranging from 20 uM to 0.63 uM; fluorescence over time
Chain of recombinant IRE1 protein (O75460 19-977, species assumed): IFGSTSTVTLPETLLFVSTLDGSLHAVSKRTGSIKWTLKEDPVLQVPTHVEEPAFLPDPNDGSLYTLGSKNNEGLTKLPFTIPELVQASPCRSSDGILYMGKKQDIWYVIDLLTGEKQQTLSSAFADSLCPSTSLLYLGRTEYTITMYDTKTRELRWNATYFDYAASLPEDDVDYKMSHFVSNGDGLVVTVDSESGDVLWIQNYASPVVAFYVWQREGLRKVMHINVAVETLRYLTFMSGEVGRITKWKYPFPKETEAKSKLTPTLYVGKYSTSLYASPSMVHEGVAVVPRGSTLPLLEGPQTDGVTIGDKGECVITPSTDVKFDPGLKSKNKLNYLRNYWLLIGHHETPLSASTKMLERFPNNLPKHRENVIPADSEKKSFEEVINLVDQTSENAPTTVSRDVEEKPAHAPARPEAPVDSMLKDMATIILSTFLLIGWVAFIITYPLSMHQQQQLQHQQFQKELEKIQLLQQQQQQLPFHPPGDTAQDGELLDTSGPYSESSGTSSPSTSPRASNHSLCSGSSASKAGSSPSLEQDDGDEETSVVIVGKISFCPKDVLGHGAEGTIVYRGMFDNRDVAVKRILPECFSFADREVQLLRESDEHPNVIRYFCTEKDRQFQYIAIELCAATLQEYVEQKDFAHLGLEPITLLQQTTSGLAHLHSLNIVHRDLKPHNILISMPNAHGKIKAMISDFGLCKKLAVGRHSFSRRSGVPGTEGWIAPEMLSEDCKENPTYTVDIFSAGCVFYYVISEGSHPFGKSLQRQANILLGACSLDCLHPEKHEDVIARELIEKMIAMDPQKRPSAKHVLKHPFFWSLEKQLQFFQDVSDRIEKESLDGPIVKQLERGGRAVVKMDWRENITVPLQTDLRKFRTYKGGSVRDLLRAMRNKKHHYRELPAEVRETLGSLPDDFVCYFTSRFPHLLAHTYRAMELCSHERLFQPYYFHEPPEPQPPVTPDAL

[3] = tested on: IL-6; test: IL-6 production with Nelfinavir and synthetic TLR4 agonist MPLA; assay type: cell-based; conditions: Nelfinavir plus TLR4 agonist MPLA compared to TLR4 agonist alone
Source text: FIG. 1. HIV-protease inhibitors (PIs) trigger robust IRE1 and XBP1 activation and synergize with TLR4 activation to produce cytokines and co-stimulatory molecules. A) XBP1 mRNA maturation (XBP1s) in J774 cells stimulated with dose dependent concentrations of HIV-PIs (similar data were obtained in primary mouse M0s, and various M0 cell lines of human and mouse origin). B) Cell extracts of cells stimulated with Tunicamycin (TM) or HIV-protease inhibitors were monitored for IRE1 activation by phosphorylation in a Phos-tag SDS-PAGE gel, CHOP induction and ATF6a processing. C) Realtime PCR of CHOP induction by the ER-stress inducer TM and the HIV-PI Nelfinavir (NFR) was analyzed in PERK proficient and deficient MEFs. […]
XBP1 mRNA maturation (XBP1s) in J774 cells stimulated with dose dependent concentrations of HIV-PIs (similar data were obtained in primary mouse M0s, and various M0 cell lines of human and mouse origin) see FIG. 1, panel A. Cell extracts of cells stimulated with Tunicamycin (TM) or HIV-protease inhibitors were monitored for IRE1 activation by phosphorylation in a Phos-tag SDS-PAGE gel, CHOP induction and ATF6a processing, see FIG. 1, panel B. Realtime PCR of CHOP induction by the ER-stress inducer TM and the HIV-PI Nelfinavir (NFR) was analyzed in PERK proficient and deficient MEFs see FIG. 1, panel C.

Row | induction of xbp1 splicing [2] | Structure (SMILES) | CD40 expression [1] | CD86 expression [1] | IL-6 production [3]
1 | marked induction | Cc1c(O)cccc1C(=O)N[C@@H](CSc1ccccc1)[C@H](O)CN1C[C@H]2CCCC[C@H]2C[C@H]1C(=O)NC(C)(C)C [Nelfinavir] | Increased | Increased | Increased
2 | not | CC(C)CN(C[C@@H](O)[C@H](Cc1ccccc1)NC(=O)O[C@H]1CCOC1)S(=O)(=O)c1ccc(N)cc1 [amprenivir, amprenavir] | – | – | –
3 | marked induction | CC(C)c1nc(CN(C)C(=O)N[C@H](C(=O)N[C@@H](Cc2ccccc2)C[C@H](O)[C@H](Cc2ccccc2)NC(=O)OCc2cncs2)C(C)C)cs1 [ritonivir, ritonavir] | – | – | –
